Measurements as given in patent US10738028B2, “Spiro three-membered ring, spiro five-membered ring peptide deformylase inhibitor and use thereof in antibacteria and anti-tumor” (priority 2016, dated 2020).

Columns and labels:
Format in all cases: cell-based
[1] = tested on: Enterococcus faecalis (EFA); assay: MIC, two-fold agar dilution (CLSI), clinical isolates
Method in brief: (§1)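 MIC values come from two-fold agar dilution run per CLSI antimicrobial susceptibility testing procedure.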

[2] = tested on: Enterococcus faecium (EFM); assay: as above
Method in brief: as §1

[3] = tested on: Escherichia coli (including ESBLs, non-ESBLs); assay: as above
Method in brief: as §1

[4] = tested on: Moraxella catarrhalis (BCA); assay: as above
Method in brief: as §1

[5] = tested on: Streptococcus pneoumoniae (SPN); assay: as above
Method in brief: as §1

[6] = tested on: methicillin-resistant Staphylococcus aureus (MRSA); assay: as above
Method in brief: as §1

[7] = tested on: methicillin-resistant Staphylococcus epidermidis (MRSE); assay: as above
Method in brief: as §1

[8] = tested on: methicillin-sensitive Staphylococcus aureus (MSSA); assay: as above
Method in brief: as §1

[9] = tested on: methicillin-sensitive Staphylococcus epidermidis (MSSE); assay: as above
Method in brief: as §1

[10] = tested on: HCT-116 colorectal cancer cell line; assay: CCK-8 proliferation inhibition; conditions: Homo sapiens, HCT-116, 72 h, concentration of 30 μM; 72 hours; CCK-8; read-out: HCT116 inhibition rate/%
Method in brief: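 2000 cells/well, McCoy's 5A + 10% newborn bovine serum; overnight attach, 37° C./5% CO2. Cpd from DMSO stock diluted in medium, 72 h. Readout: CCK-8 (1:10). Ctrl 1‰ DMSO.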

For `O=C(C[C@@H](CC1CCCC1)C(=O)N1CC2(CC2)C[C@H]1C(=O)NC1CC1)NO` [Example 68], the Anti-bacterial activity (MIC) ([1]; strain EFA 15-1) was over 32 µg/mL, the Anti-bacterial activity (MIC) ([1]; strain EFA 15-2) was over 32 µg/mL and the Anti-bacterial activity (MIC) ([1]; strain EFA 15-3) was over 32 µg/mL. It also gave an Anti-bacterial activity (MIC) ([1]; strain EFA 15-4) of over 32 µg/mL, an Anti-bacterial activity (MIC) ([1]; strain EFA 15-5) of over 32 µg/mL and an Anti-bacterial activity (MIC) ([1]; strain EFA 15-6) of over 32 µg/mL. The Anti-bacterial activity (MIC) ([1]; strain EFA 15-9) was 32 µg/mL, the Anti-bacterial activity (MIC) ([2]; strain EFM 15-1) was over 32 µg/mL and the Anti-bacterial activity (MIC) ([2]; strain EFM 15-2) was over 32 µg/mL. The Anti-bacterial activity (MIC) ([2]; strain EFM 15-3) was over 32 µg/mL, the Anti-bacterial activity (MIC) ([2]; strain EFM 15-4) was 32 µg/mL and the Anti-bacterial activity (MIC) ([2]; strain EFM 15-5) was 4 µg/mL. It also gave an Anti-bacterial activity (MIC) ([2]; strain EFM 15-6) of 4 µg/mL, an Anti-bacterial activity (MIC), strain ECO+ 15-1 ([3]; clinical isolate ECO+ 15-1) of over 32 µg/mL and an Anti-bacterial activity (MIC), strain ECO+ 15-2 ([3]; clinical isolate ECO+ 15-2) of over 32 µg/mL. The Anti-bacterial activity (MIC), strain ECO+ 15-3 ([3]; clinical isolate ECO+ 15-3) was over 32 µg/mL, the Anti-bacterial activity (MIC), strain ECO+ 15-4 ([3]; clinical isolate ECO+ 15-4) was over 32 µg/mL and the Anti-bacterial activity (MIC), strain ECO− 15-1 ([3]; clinical isolate ECO− 15-1) was over 32 µg/mL. It also gave an Anti-bacterial activity (MIC), strain ECO− 15-2 ([3]; clinical isolate ECO− 15-2) of over 32 µg/mL, an Anti-bacterial activity (MIC), strain ECO− 15-3 ([3]; clinical isolate ECO− 15-3) of over 32 µg/mL and an Anti-bacterial activity (MIC), strain ECO− 15-4 ([3]; clinical isolate ECO− 15-4) of over 32 µg/mL. For the same compound, the Anti-bacterial activity (MIC) ([4]; strain BCA 14-1) was 32 µg/mL, the Anti-bacterial activity (MIC) ([4]; strain BCA 14-4) was 32 µg/mL and the Anti-bacterial activity (MIC) ([4]; strain BCA 14-5) was 4 µg/mL. For the same compound, the Anti-bacterial activity (MIC) ([4]; strain BCA 14-6) was 32 µg/mL, the Anti-bacterial activity (MIC) ([4]; strain BCA 14-7) was 32 µg/mL and the Anti-bacterial activity (MIC) ([4]; strain BCA 14-8) was 32 µg/mL. For the same compound, the Anti-bacterial activity (MIC) ([4]; strain BCA 14-10) was 2 µg/mL, the Anti-bacterial activity (MIC) ([5]; strain SPN 16-2) was 2 µg/mL and the Anti-bacterial activity (MIC) ([5]; strain SPN 16-4) was 1 µg/mL. For the same compound, the Anti-bacterial activity (MIC), strain MRSA 15-1 ([6]; clinical isolate MRSA 15-1) was over 32 µg/mL, the Anti-bacterial activity (MIC), strain MRSA 15-2 ([6]; clinical isolate MRSA 15-2) was over 32 µg/mL and the Anti-bacterial activity (MIC), strain MRSA 15-3 ([6]; clinical isolate MRSA 15-3) was over 32 µg/mL. The Anti-bacterial activity (MIC), strain MRSA 15-4 ([6]; clinical isolate MRSA 15-4) was over 32 µg/mL, the Anti-bacterial activity (MIC), strain MRSE 15-1 ([7]; clinical isolate MRSE 15-1) was over 32 µg/mL and the Anti-bacterial activity (MIC), strain MRSE 15-2 ([7]; clinical isolate MRSE 15-2) was over 32 µg/mL. The Anti-bacterial activity (MIC), strain MRSE 15-3 ([7]; clinical isolate MRSE 15-3) was over 32 µg/mL, the Anti-bacterial activity (MIC), strain MRSE 15-7 ([7]; clinical isolate MRSE 15-7) was over 32 µg/mL and the Anti-bacterial activity (MIC), strain MSSA 15-3 ([8]; clinical isolate MSSA 15-3) was over 32 µg/mL. It also gave an Anti-bacterial activity (MIC), strain MSSA 15-4 ([8]; clinical isolate MSSA 15-4) of over 32 µg/mL, an Anti-bacterial activity (MIC), strain MSSA 15-5 ([8]; clinical isolate MSSA 15-5) of over 32 µg/mL and an Anti-bacterial activity (MIC), strain MSSA 15-6 ([8]; clinical isolate MSSA 15-6) of over 32 µg/mL. It also gave an Anti-bacterial activity (MIC), strain MSSE 15-3 ([9]; clinical isolate MSSE 15-3) of over 32 µg/mL, an Anti-bacterial activity (MIC), strain MSSE 15-4 ([9]; clinical isolate MSSE 15-4) of over 32 µg/mL and an Anti-bacterial activity (MIC), strain MSSE 15-5 ([9]; clinical isolate MSSE 15-5) of over 32 µg/mL. The Anti-bacterial activity (MIC), strain MSSE 15-6 ([9]; clinical isolate MSSE 15-6) was over 32 µg/mL and the inhibition at 30 µM [10] was 21%.
